Test results as given in ChEMBL document CHEMBL1201862, “PubChem BioAssay data set” (2004).
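Cultured in 96-well plates, cells were exposed to test compound for 48 hours across five concentrations. GI50: concentration for 50% inhibition of growth.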 Activity calls are given as the source filed them. Cut-off read from the data, not from the text of the source: active = GI50 up to about 1.1 µM and inactive = higher.

Tests used:
Experiment in all cases: NCI-60 cell line screen, 48 h
Malme-3M = tested on: Malme-3M
PC-3 = tested on: PC-3
OVCAR-5 = tested on: OVCAR-5
NCI-H460 = tested on: NCI-H460
HL-60 = tested on: HL-60
M14 = tested on: M14
SK-MEL-2 = tested on: SK-MEL-2
TK-10 = tested on: TK-10
HT-29 = tested on: HT-29
HCT-116 = tested on: HCT-116
RPMI-8226 = tested on: RPMI-8226
SNB-19 = tested on: SNB-19
KM12 = tested on: KM12
IGROV-1 = tested on: IGROV-1
SK-MEL-5 = tested on: SK-MEL-5
786-0 = tested on: 786-0
OVCAR-8 = tested on: OVCAR-8
A498 = tested on: A498
HCC 2998 = tested on: HCC 2998
SNB-75 = tested on: SNB-75

Row | SMILES | GI50 (Malme-3M) | GI50 (PC-3) | GI50 (OVCAR-5) | GI50 (NCI-H460) | GI50 (HL-60) | GI50 (M14) | GI50 (SK-MEL-2) | GI50 (TK-10) | GI50 (HT-29) | GI50 (HCT-116) | GI50 (RPMI-8226) | GI50 (SNB-19) | GI50 (KM12) | GI50 (IGROV-1) | GI50 (SK-MEL-5) | GI50 (786-0) | GI50 (OVCAR-8) | GI50 (A498) | GI50 (HCC 2998) | GI50 (SNB-75)
1 | NNC(=O)c1ccc(OCc2nc3ccccc3[nH]2)cc1 | > 100 µM (inactive) | > 100 µM (inactive) | > 100 µM (inactive) | 31.8 µM (inactive) | 43.7 µM (inactive) | 53.1 µM (inactive) | > 100 µM (inactive) | > 100 µM (inactive) | > 100 µM (inactive) | 29.1 µM (inactive) | 55.6 µM (inactive) | > 100 µM (inactive) | > 100 µM (inactive) | > 100 µM (inactive) | 27.9 µM (inactive) | > 100 µM (inactive) | > 100 µM (inactive) | > 100 µM (inactive) | – | –
2 | CCCCn1c(C)c(C(=O)CC)c(C(=O)NCCN2CCN(c3ccccc3Cl)CC2)c1C | 18.1 µM (inactive) | 16.1 µM (inactive) | 17.5 µM (inactive) | 15.3 µM (inactive) | 15.2 µM (inactive) | 17.6 µM (inactive) | 16.7 µM (inactive) | 19.7 µM (inactive) | 13.4 µM (inactive) | 14.3 µM (inactive) | 16.3 µM (inactive) | 15.8 µM (inactive) | 19.8 µM (inactive) | 16.7 µM (inactive) | 14.1 µM (inactive) | 16.1 µM (inactive) | 17.3 µM (inactive) | 17.5 µM (inactive) | – | –
3 | O=C(O)c1cc2cc(OCc3ccccc3)ccc2[nH]1 | 0.116 µM (active) | > 100 µM (inactive) | > 100 µM (inactive) | > 100 µM (inactive) | > 100 µM (inactive) | > 100 µM (inactive) | 61.7 µM (inactive) | > 100 µM (inactive) | – | > 100 µM (inactive) | > 100 µM (inactive) | 73.6 µM (inactive) | > 100 µM (inactive) | > 100 µM (inactive) | > 100 µM (inactive) | > 100 µM (inactive) | > 100 µM (inactive) | 87.5 µM (inactive) | > 100 µM (inactive) | –
4 | CC(C)CNC(=O)Cn1c2c(c3ccccc31)CCCC2 | 82.4 µM (inactive) | 58.5 µM (inactive) | > 100 µM (inactive) | 64.1 µM (inactive) | 34 µM (inactive) | > 100 µM (inactive) | > 100 µM (inactive) | 35.8 µM (inactive) | > 100 µM (inactive) | 27.8 µM (inactive) | 40.6 µM (inactive) | 85.3 µM (inactive) | – | 14.9 µM (inactive) | 64.7 µM (inactive) | 20.7 µM (inactive) | 81.5 µM (inactive) | 22.2 µM (inactive) | > 100 µM (inactive) | –
5 | C=C(C)C(O)C(O)C[C@@H](C)C1CC[C@]23C[C@]12CCC1[C@@]2(C)CCC(OC(C)=O)C(C)(C)C2CC(OC2OC(CO)C(O)C(O)C2O)[C@]13C (some centres undefined) | 17.5 µM (inactive) | 18.4 µM (inactive) | 20.9 µM (inactive) | 17.9 µM (inactive) | 18.1 µM (inactive) | 15.2 µM (inactive) | 16.6 µM (inactive) | 20.8 µM (inactive) | 18.2 µM (inactive) | 15.9 µM (inactive) | 21.5 µM (inactive) | 20 µM (inactive) | 17.7 µM (inactive) | 15.3 µM (inactive) | 18.9 µM (inactive) | 19.1 µM (inactive) | 19.5 µM (inactive) | – | 15.7 µM (inactive) | 19.6 µM (inactive)
6 | CCOC(=O)c1cc(C(=O)c2ccccc2)n2nc(-c3ccc(Cl)cc3)ccc12 | 19.5 µM (inactive) | 15.5 µM (inactive) | 23.3 µM (inactive) | 22.1 µM (inactive) | > 100 µM (inactive) | 31.8 µM (inactive) | 17.4 µM (inactive) | 19.3 µM (inactive) | 23.7 µM (inactive) | 44.7 µM (inactive) | 91.2 µM (inactive) | 16.4 µM (inactive) | 20 µM (inactive) | 18.7 µM (inactive) | 17.4 µM (inactive) | 15.2 µM (inactive) | – | 16.8 µM (inactive) | 23.2 µM (inactive) | –
